This note sets out measurements from paper PMC5554444 (Cancer prevention research (Philadelphia, Pa.), 2011).

In data set [1] the test system is MCF7 cells. In words: Western blot of p53 and p21 protein. In kind it is cell-based, human. To be noted: 1 μM, 8, 24 and 48 h. On the technique in general: A western blot detects proteins with antibodies after separation by electrophoresis.
Data set [2] in a line: Absorption and distribution in rats after gavage. To be noted: 40 mg/kg by gavage, 3 h after first treatment, individual rats; listed as AM6-36. In kind it is in vivo, rat.
Data set [3] has as its target T1, human RXRα (Homo sapiens, UniProt P19793).
T1 sequence (P19793 1-462): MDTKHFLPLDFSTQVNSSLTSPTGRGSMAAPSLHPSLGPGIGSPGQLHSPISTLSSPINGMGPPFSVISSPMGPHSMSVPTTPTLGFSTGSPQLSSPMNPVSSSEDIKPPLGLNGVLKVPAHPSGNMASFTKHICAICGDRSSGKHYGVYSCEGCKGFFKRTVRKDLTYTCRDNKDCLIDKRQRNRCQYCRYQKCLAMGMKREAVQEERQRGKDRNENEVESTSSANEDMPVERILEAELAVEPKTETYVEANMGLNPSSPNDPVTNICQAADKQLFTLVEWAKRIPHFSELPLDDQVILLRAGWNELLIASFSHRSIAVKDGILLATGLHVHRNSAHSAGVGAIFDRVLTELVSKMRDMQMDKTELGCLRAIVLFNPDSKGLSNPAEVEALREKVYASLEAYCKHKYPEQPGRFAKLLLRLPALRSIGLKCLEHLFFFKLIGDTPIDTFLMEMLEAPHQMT
The conditions noted are these: COS-1 cells, 24 h.

The nature of data set [4]: Caco-2 cell monolayer permeability. In kind it is in vitro ADME. To be noted: human, Caco-2, pH 7.4. On the technique in general: Caco-2 monolayers are a common model of the intestinal barrier.
Data set [5] concerns Caco-2 cell monolayer. In words: Caco-2 cell monolayer permeability. In kind it is in vitro ADME. To be noted: Caco-2.
Data set [6] relates to MCF7 cells. The data set can be described thus: Cell cycle distribution by NIM-DAPI flow cytometry. In kind it is cell-based, human. To be noted: 2.5 μM. In general terms: A flow cytometer gives signals particle by particle.
Data set [7] relates to MNU-induced mammary tumors. The data set can be described thus: MNU-induced mammary tumor growth in Sprague-Dawley rats. In kind it is in vivo, rat. To be noted: 10 mg/kg BW/day, six weeks, 10 rats/group, p = 0.1 Mann-Whitney.
Data set [8] has as its system MCF7 cells. The data set can be described thus: RT2 Profiler PCR array of 84 human cell cycle genes. In kind it is cell-based.
Data set [9] deals with MCF7 breast cancer cells. The data set can be described thus: SRB assay, anti-proliferative potential. To be noted: Homo sapiens, MCF7, 72 h, read-out: SRB assay IC50. In kind it is cell-based.
Data set [10] relates to HL-60 cells. The data set can be described thus: Expression of cell surface marker CD38 by flow cytometry. In kind it is cell-based, human.

Structures are written as SMILES. “And” between values parts separate entries of the source, which are not always exact repeats. Equal entries are not always repeated.

By Papp A→B is commonly meant the apparent permeability from the apical to the basolateral side of a cell layer. The low end stands for poor permeation, the high end for ready permeation. Usually Papp B→A stands for the apparent permeability from the basolateral to the apical side of a cell layer. Broadly, the IC50 is the point on the concentration scale where inhibition reaches its midpoint.

For `Cl.Cl.NCCCn1c2c(c3ccc(N)cc3c1=O)C(=O)c1ccccc1-2` [Compound 3, 3-amino-6-(3-aminopropyl)-5,6-dihydro-5,11-dioxo-11H-indeno[1,2-c]isoquinoline dihydrochloride], in data set [1], the p21 protein expression result is “moderate increase at 8 h, and incremental expression was observed at 24 and 48 h”; the p53 protein level result is “increase of p53 at 8 h, followed by decreases at 24 and 48 h”. Moreover, in data set [2], the “Serum 1-day” value is 0.84 ± 0.01 μg/ml and 2.14 μM and 0.82 ± 0.004 μg/ml and 2.09 μM. The “Relative luciferase activity induction” value in [3] (20 μM) is given as 133.2 fold. Also, the “RXRE assay, fold increase of relative luciferase activity over vehicle” value in [3] (40 μM) was determined as 5.49±0.34 fold. In data set [4], this compound registered a Papp A→B at 5 µM of 2.75 ± 0.78 ×10⁻⁶ cm/s, a Papp A→B at 10 µM of 5.52 ± 0.29 ×10⁻⁶ cm/s, a Papp A→B at 25 µM of 4.45 ± 0.71 ×10⁻⁶ cm/s and a Papp B→A at 5 µM of 3.95 ± 0.11 ×10⁻⁶ cm/s. For the same compound, in data set [4], the Papp B→A at 10 µM is 3.25 ± 0.71 ×10⁻⁶ cm/s and the Papp B→A at 25 µM was found to be 8.26 ± 0.93 ×10⁻⁶ cm/s. In addition, in data set [5], the “Papp AP to BL, times slower than propranolol” value stood at 10 fold. In addition, in data set [6], the Cell cycle distribution entry was “S phase arrest”. Moreover, in data set [7], the “Growth of MNU-induced mammary tumors” value is “clearly attenuated tumor growth”. For the same compound, the “Up-regulation of CDKN1A expression” value in data set [8] (DNA microarray analysis) was found to be 35 fold.

For `CC[C@@]1(O)C(=O)OCc2c1cc1n(c2=O)Cc2cc3ccccc3nc2-1` [Camptothecin], the IC50 in data set [9] turned out to be 1.41 nM.

Consider `C=C(c1ccc(C(=O)O)cc1)c1cc2c(cc1C)C(C)(C)CCC2(C)C` [Bexarotene, reference compound], for which the “Number of genes out of 84 with significantly altered expression” value in [8] (24 h, AM6-36 1 μM, bexarotene 100 μM, P <0.05) was determined as 9.

`CC1=C(/C=C/C(C)=C\C=C\C(C)=C\C(=O)O)C(C)(C)CCC1` [Compound 9-cis-RA, 9-cis-Retinoic acid]: the “FL-1 positive cells (CD38)” value in data set [10] (HL-60 cells, 2 nM) was 86.7%. Moreover, the “CD38-expressing cell population (FL-1 positive)” value in data set [10] (HL-60 cells, 2000, 200, 20 nM) is reported as “about 95%”.
